Measured values taken from BindingDB's records for PubMed 11916140 (Universit&Agrave, 2001).

Assays:
Experiment in all cases: Inhibition Assay
Details in all cases: pH 7.4; 25 °C
[1] = target: T1, Carbonic anhydrase 4 (Bos taurus, UniProt Q95323)
T1 sequence (Q95323 whole entry): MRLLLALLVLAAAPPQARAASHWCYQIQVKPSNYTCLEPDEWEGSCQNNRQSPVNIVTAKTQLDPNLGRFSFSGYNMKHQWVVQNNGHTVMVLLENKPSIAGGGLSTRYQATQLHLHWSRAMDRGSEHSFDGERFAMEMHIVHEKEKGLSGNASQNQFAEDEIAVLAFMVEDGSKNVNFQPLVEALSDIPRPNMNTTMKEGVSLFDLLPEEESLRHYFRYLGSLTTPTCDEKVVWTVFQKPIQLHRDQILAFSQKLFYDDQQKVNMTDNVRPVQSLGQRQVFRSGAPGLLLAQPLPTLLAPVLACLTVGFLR
Text: (§1) Inhibition assay using human Carbonic anhydrase I and II and bovine carbonic anhydrase IV.

[2] = target: Carbonic anhydrase 2 (Homo sapiens, UniProt P00918)
Text: as §1

[3] = target: Carbonic anhydrase 1 (Homo sapiens, UniProt P00915)
Text: as §1

Chain of Carbonic anhydrase 1 (P00915 whole entry): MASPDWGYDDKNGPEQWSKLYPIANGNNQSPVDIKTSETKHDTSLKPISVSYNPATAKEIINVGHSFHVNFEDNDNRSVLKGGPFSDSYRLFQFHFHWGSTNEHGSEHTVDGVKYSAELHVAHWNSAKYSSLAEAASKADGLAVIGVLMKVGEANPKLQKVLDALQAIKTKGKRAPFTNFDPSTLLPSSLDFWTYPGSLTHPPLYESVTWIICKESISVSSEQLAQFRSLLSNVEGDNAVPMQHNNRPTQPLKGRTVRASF

Row | Structure (SMILES) | Ki [1] [nM] | Ki [2] [nM] | Ki [3] [nM]
1 | NS(=O)(=O)OCc1csc(-c2ccc(S(=O)(=O)c3ccc(Cl)cc3)cc2)n1 [2-[4-(4-Chlorophenylsulfonyl)-Phenyl}-thiazole-4-yl-methyl-sulfamate, 3b] | 66 | 30 | > 1000
2 | NS(=O)(=O)NCc1csc(-c2ccc(S(=O)(=O)c3ccc(Cl)cc3)cc2)n1 [2-[4-(4-Chlorophenylsulfonyl)-Phenyl}-thiazole-4-yl-methyl-sulfamide, 2b] | 65 | 24 | > 1000
3 | NS(=O)(=O)OCc1csc(-c2ccc(S(=O)(=O)c3ccccc3)cc2)n1 [2-[4-(Phenylsulfonyl)-Phenyl}-thiazole-4-yl-methyl-sulfamate, 3a] | 87 | 33 | > 1000
4 | NS(=O)(=O)NCc1csc(-c2ccc(S(=O)(=O)c3ccccc3)cc2)n1 [2-[4-(Phenylsulfonyl)-Phenyl}-thiazole-4-yl-methyl-sulfamide, 2a] | 83 | 28 | > 1000

The next compounds have a lower Ki [1] than those just listed; values first:

Row | Ki [1] [nM] | Ki [2] [nM] | Ki [3] [nM] | Structure (SMILES)
5 | 54 | 21 | > 1000 | NS(=O)(=O)OCc1csc(-c2ccc(S(=O)(=O)c3ccc(Br)cc3)cc2)n1 [2-[4-(4-Bromophenylsulfonyl)-Phenyl}-thiazole-4-yl-methyl-sulfamate, 3c]
6 | 50 | 16 | > 1000 | NS(=O)(=O)NCc1csc(-c2ccc(S(=O)(=O)c3ccc(Br)cc3)cc2)n1 [2-[4-(4-Bromophenylsulfonyl)-Phenyl}-thiazole-4-yl-methyl-sulfamide, 2c]
